Measurements published in patent US11707440B2 (priority 2017, dated 2023).

Tests used:
[1] = test system: elderly subjects with TRD; settings: US patients aged ≥65 years
[2] = test system: patients with treatment-resistant depression (TRD); assay: Adverse events, Example 7; format: in vivo, human; settings: for Dissociation, number of participants / Dissociative disorder, % of participants / Dissociative disorder, number of participants / Dizziness, % of participants / Dizziness, number of participants / Dysgeusia, % of participants / Dysgeusia, number of participants / Feeling abnormal, % of participants / Feeling abnormal, number of participants / Headache, % of participants / Headache, number of participants / Hypersomnia, % of participants / Hypersomnia, number of participants / Hypertension, number of participants / Hypoesthesia oral, % of participants / Hypoesthesia oral, number of participants / Insomnia, number of participants / Nasal discomfort, number of participants / Nausea, % of participants / Nausea, number of participants / Oropharyngeal pain, number of participants / Polyuria, number of participants / Sedation, % of participants / Sedation, number of participants / Throat irritation, % of participants / Throat irritation, number of participants / Total with events, % of participants / Total with events, number of participants / Tunnel vision, number of participants / Vertigo, % of participants / Vertigo, number of participants / Vision blurred, number of participants / Dissociation, % of participants / Hypertension, % of participants / Insomnia, % of participants / Nasal discomfort, % of participants / Oropharyngeal pain, % of participants / Polyuria, % of participants / Tunnel vision, % of participants / Vision blurred, % of participants: double-blind
Protocol: Adverse events were monitored throughout the study. Other safety assessments (i.e., laboratory tests, vital signs, physical examination) were performed at pre-specified time points. Vital signs, the Clinician Administered Dissociative States Scale (CADSS; Bremner, “Measurement of dissociative states with the clinician-administered dissociative states scale (CADSS)”, J. Traumatic Stress, 1998, 11(1):125-136), and the 4-item positive symptom subscale from the Brief Psychiatric Rating Scale (BPRS; Overall, “The Brief Psychiatric Rating Scale. Psychological Reports”, 1962, 10:799-812) were assessed pre-dose, at 40 minutes, and 2 hours post-dose.
Safety data were analyzed in Period 1, Period 2, double-blind, and open-label data sets, for all subjects receiving at least 1 dose of study medication.

`CN[C@]1(c2ccccc2Cl)CCCCC1=O` [esketamine, (S)-2-(2-chlorophenyl)-2-(methylamino)cyclohexanone] was tested, and the “Patients who withdrew the nasal spray” value [1] was 2 patients, the “Dissociation, number of participants” value ([2]; 28 mg) was 0 and the “Dissociative disorder, % of participants” value ([2]; 28 mg) was 11%. For the same molecule, the “Dissociative disorder, number of participants” value (“Dissociative disorder, number” for short) ([2]; 28 mg) was 2, the “Dizziness, % of participants” value ([2]; 28 mg) was 21% and the “Dizziness, number of participants” value ([2]; 28 mg) was 4. The “Dysgeusia, % of participants” value ([2]; 28 mg) was 11%, the “Dysgeusia, number of participants” value ([2]; 28 mg) was 2 and the “Feeling abnormal, % of participants” value ([2]; 28 mg) was 11%. The “Feeling abnormal, number of participants” value ([2]; 28 mg) was 2, the “Headache, % of participants” value ([2]; 28 mg) was 32% and the “Headache, number of participants” value ([2]; 28 mg) was 6. For the same molecule, the “Hypersomnia, % of participants” value ([2]; 28 mg) was 11%, the “Hypersomnia, number of participants” value ([2]; 28 mg) was 2 and the “Hypertension, number of participants” value ([2]; 28 mg) was 0. The “Hypoesthesia oral, % of participants” value ([2]; 28 mg) was 5%, the “Hypoesthesia oral, number of participants” value (“Hypoesthesia oral, number” for short) ([2]; 28 mg) was 1 and the “Insomnia, number of participants” value ([2]; 28 mg) was 0. For the same molecule, the “Nasal discomfort, number of participants” value ([2]; 28 mg) was 0, the “Nausea, % of participants” value ([2]; 28 mg) was 11% and the “Nausea, number of participants” value ([2]; 28 mg) was 2. For the same molecule, the “Oropharyngeal pain, number of participants” value (“Oropharyngeal pain, number” for short) ([2]; 28 mg) was 0, the “Polyuria, number of participants” value ([2]; 28 mg) was 0 and the “Sedation, % of participants” value ([2]; 28 mg) was 5%. For the same molecule, the “Sedation, number of participants” value ([2]; 28 mg) was 1, the “Throat irritation, % of participants” value ([2]; 28 mg) was 5% and the “Throat irritation, number of participants” value (from here on “Throat irritation, number”) ([2]; 28 mg) was 1. The “Total with events, % of participants” value ([2]; 28 mg) was 58%, the “Total with events, number of participants” value (“Total with events, number” for short) ([2]; 28 mg) was 11 and the “Tunnel vision, number of participants” value ([2]; 28 mg) was 0. For the same molecule, the “Vertigo, % of participants” value ([2]; 28 mg) was 11%, the “Vertigo, number of participants” value ([2]; 28 mg) was 2 and the “Vision blurred, number of participants” value ([2]; 28 mg) was 0. For the same molecule, the “Dissociation, % of participants” value ([2]; 56 mg) was 35%, the “Dissociation, number of participants” value ([2]; 56 mg) was 7 and the “Dissociative disorder, % of participants” value ([2]; 56 mg) was 5%. For the same molecule, the “Dissociative disorder, number” value ([2]; 56 mg) was 1, the “Dizziness, % of participants” value ([2]; 56 mg) was 40% and the “Dizziness, number of participants” value ([2]; 56 mg) was 8. The “Dysgeusia, % of participants” value ([2]; 56 mg) was 15%, the “Dysgeusia, number of participants” value ([2]; 56 mg) was 3 and the “Feeling abnormal, % of participants” value ([2]; 56 mg) was 5%. The “Feeling abnormal, number of participants” value ([2]; 56 mg) was 1, the “Headache, % of participants” value ([2]; 56 mg) was 15% and the “Headache, number of participants” value ([2]; 56 mg) was 3. The “Hypersomnia, number of participants” value ([2]; 56 mg) was 0, the “Hypertension, % of participants” value ([2]; 56 mg) was 10% and the “Hypertension, number of participants” value ([2]; 56 mg) was 2. The “Hypoesthesia oral, % of participants” value ([2]; 56 mg) was 20%, the “Hypoesthesia oral, number” value ([2]; 56 mg) was 4 and the “Insomnia, % of participants” value ([2]; 56 mg) was 10%. For the same molecule, the “Insomnia, number of participants” value ([2]; 56 mg) was 2, the “Nasal discomfort, % of participants” value ([2]; 56 mg) was 10% and the “Nasal discomfort, number of participants” value ([2]; 56 mg) was 2. The “Nausea, % of participants” value ([2]; 56 mg) was 20%, the “Nausea, number of participants” value ([2]; 56 mg) was 4 and the “Oropharyngeal pain, % of participants” value ([2]; 56 mg) was 5%. The “Oropharyngeal pain, number” value ([2]; 56 mg) was 1, the “Polyuria, % of participants” value ([2]; 56 mg) was 10% and the “Polyuria, number of participants” value ([2]; 56 mg) was 2. For the same molecule, the “Sedation, % of participants” value ([2]; 56 mg) was 10%, the “Sedation, number of participants” value ([2]; 56 mg) was 2 and the “Throat irritation, number” value ([2]; 56 mg) was 0. The “Total with events, % of participants” value ([2]; 56 mg) was 80%, the “Total with events, number” value ([2]; 56 mg) was 16 and the “Tunnel vision, number of participants” value ([2]; 56 mg) was 0. The “Vertigo, % of participants” value ([2]; 56 mg) was 5%, the “Vertigo, number of participants” value ([2]; 56 mg) was 1 and the “Vision blurred, number of participants” value ([2]; 56 mg) was 0. The “Dissociation, % of participants” value ([2]; 84 mg) was 24%, the “Dissociation, number of participants” value ([2]; 84 mg) was 4 and the “Dissociative disorder, % of participants” value ([2]; 84 mg) was 24%. For the same molecule, the “Dissociative disorder, number” value ([2]; 84 mg) was 4, the “Dizziness, % of participants” value ([2]; 84 mg) was 47% and the “Dizziness, number of participants” value ([2]; 84 mg) was 8. For the same molecule, the “Dysgeusia, % of participants” value ([2]; 84 mg) was 29%, the “Dysgeusia, number of participants” value ([2]; 84 mg) was 5 and the “Feeling abnormal, % of participants” value ([2]; 84 mg) was 6%. For the same molecule, the “Feeling abnormal, number of participants” value ([2]; 84 mg) was 1, the “Headache, % of participants” value ([2]; 84 mg) was 18% and the “Headache, number of participants” value ([2]; 84 mg) was 3. The “Hypersomnia, number of participants” value ([2]; 84 mg) was 0, the “Hypertension, % of participants” value ([2]; 84 mg) was 6% and the “Hypertension, number of participants” value ([2]; 84 mg) was 1. The “Hypoesthesia oral, % of participants” value ([2]; 84 mg) was 12%, the “Hypoesthesia oral, number” value ([2]; 84 mg) was 2 and the “Insomnia, number of participants” value ([2]; 84 mg) was 0. For the same molecule, the “Nasal discomfort, % of participants” value ([2]; 84 mg) was 6%, the “Nasal discomfort, number of participants” value ([2]; 84 mg) was 1 and the “Nausea, % of participants” value ([2]; 84 mg) was 24%. For the same molecule, the “Nausea, number of participants” value ([2]; 84 mg) was 4, the “Oropharyngeal pain, % of participants” value ([2]; 84 mg) was 12% and the “Oropharyngeal pain, number” value ([2]; 84 mg) was 2. For the same molecule, the “Polyuria, number of participants” value ([2]; 84 mg) was 0, the “Sedation, % of participants” value ([2]; 84 mg) was 6% and the “Sedation, number of participants” value ([2]; 84 mg) was 1. The “Throat irritation, % of participants” value ([2]; 84 mg) was 12%, the “Throat irritation, number” value ([2]; 84 mg) was 2 and the “Total with events, % of participants” value ([2]; 84 mg) was 88%. The “Total with events, number” value ([2]; 84 mg) was 15, the “Tunnel vision, % of participants” value ([2]; 84 mg) was 12% and the “Tunnel vision, number of participants” value ([2]; 84 mg) was 2. For the same molecule, the “Vertigo, % of participants” value ([2]; 84 mg) was 6%, the “Vertigo, number of participants” value ([2]; 84 mg) was 1 and the “Vision blurred, % of participants” value ([2]; 84 mg) was 12%. The “Vision blurred, number of participants” value ([2]; 84 mg) was 2, the “Dissociation, % of participants” value ([2]; Total esketamine) was 20% and the “Dissociation, number of participants” value ([2]; Total esketamine) was 11. For the same molecule, the “Dissociative disorder, % of participants” value ([2]; Total esketamine) was 13%, the “Dissociative disorder, number” value ([2]; Total esketamine) was 7 and the “Dizziness, % of participants” value ([2]; Total esketamine) was 36%. For the same molecule, the “Dizziness, number of participants” value ([2]; Total esketamine) was 20, the “Dysgeusia, % of participants” value ([2]; Total esketamine) was 18% and the “Dysgeusia, number of participants” value ([2]; Total esketamine) was 10. The “Feeling abnormal, % of participants” value ([2]; Total esketamine) was 7%, the “Feeling abnormal, number of participants” value ([2]; Total esketamine) was 4 and the “Headache, % of participants” value ([2]; Total esketamine) was 21%. The “Headache, number of participants” value ([2]; Total esketamine) was 12, the “Hypersomnia, % of participants” value ([2]; Total esketamine) was 4% and the “Hypersomnia, number of participants” value ([2]; Total esketamine) was 2. For the same molecule, the “Hypertension, % of participants” value ([2]; Total esketamine) was 5%, the “Hypertension, number of participants” value ([2]; Total esketamine) was 3 and the “Hypoesthesia oral, % of participants” value ([2]; Total esketamine) was 13%. The “Hypoesthesia oral, number” value ([2]; Total esketamine) was 7, the “Insomnia, % of participants” value ([2]; Total esketamine) was 4% and the “Insomnia, number of participants” value ([2]; Total esketamine) was 2. The “Nasal discomfort, % of participants” value ([2]; Total esketamine) was 5%, the “Nasal discomfort, number of participants” value ([2]; Total esketamine) was 3 and the “Nausea, % of participants” value ([2]; Total esketamine) was 18%. The “Nausea, number of participants” value ([2]; Total esketamine) was 10, the “Oropharyngeal pain, % of participants” value ([2]; Total esketamine) was 5% and the “Oropharyngeal pain, number” value ([2]; Total esketamine) was 3. For the same molecule, the “Polyuria, % of participants” value ([2]; Total esketamine) was 4%, the “Polyuria, number of participants” value ([2]; Total esketamine) was 2 and the “Sedation, % of participants” value ([2]; Total esketamine) was 7%. The “Sedation, number of participants” value ([2]; Total esketamine) was 4, the “Throat irritation, % of participants” value ([2]; Total esketamine) was 5% and the “Throat irritation, number” value ([2]; Total esketamine) was 3. The “Total with events, % of participants” value ([2]; Total esketamine) was 75%, the “Total with events, number” value ([2]; Total esketamine) was 42 and the “Tunnel vision, % of participants” value ([2]; Total esketamine) was 4%. The “Tunnel vision, number of participants” value ([2]; Total esketamine) was 2, the “Vertigo, % of participants” value ([2]; Total esketamine) was 7% and the “Vertigo, number of participants” value ([2]; Total esketamine) was 4. The “Vision blurred, % of participants” value ([2]; Total esketamine) was 4%, the “Vision blurred, number of participants” value ([2]; Total esketamine) was 2 and the “Participants with adverse events leading to discontinuation of study drug” value ([2]; double-blind phase) was 5%. For the same molecule, the Adverse event dizziness ([2]; open-label phase) was 38.6%, the Adverse event dysgeusia ([2]; open-label phase) was 22.8% and the Adverse event headache ([2]; open-label phase) was 14.0%. The Adverse event nausea ([2]; open-label phase) was 15.8%, the Adverse event sedation ([2]; open-label phase) was 10.5% and the “Participants reporting transient dissociative symptoms” value ([2]; open-label phase) was 24.6%. For the same molecule, the “Participants with adverse events leading to discontinuation of study drug” value ([2]; open-label phase) was 2%.
